Assay results taken from BigSolDB 2.1.

O=C(O)c1ccc(O)c(O)c1
solubility (mole fraction)
Details | 293.15 K | 298.15 K | 303.15 K | 308.15 K | 313.15 K | 318.15 K
in ethanol | 0.0302 | 0.041 | 0.0495 | 0.0665 | 0.0847 | 0.108
in ethyl acetate | 0.00478 | 0.00671 | 0.00906 | 0.013 | 0.0179 | 0.0233
in methanol | 0.0337 | 0.0451 | 0.0654 | 0.093 | 0.126 | 0.167
in methyl acetate | 0.00563 | 0.00843 | 0.0115 | 0.0167 | 0.0225 | 0.03
